Holding throughout (type): functional
One experiment has as its system Escherichia coli. As to the kind of experiment: Antimicrobial activity against Escherichia coli ATCC 25922 assessed as growth inhibition after 24 hr by NCCLS broth dilution method. A general note: Dilution methods test growth across graded concentrations, often in twofold steps.
Another experiment deals with Staphylococcus aureus. As to the kind of experiment: Antimicrobial activity against Staphylococcus aureus ATCC 25923 assessed as growth inhibition after 24 hr by NCCLS broth dilution method.
In another experiment the test system is Pseudomonas aeruginosa. The experiment is described as follows: Antimicrobial activity against Pseudomonas aeruginosa ATCC 27853 assessed as growth inhibition after 24 hr by NCCLS broth dilution method.
A further experiment has as its system Bacillus subtilis. The experiment is described as follows: Antimicrobial activity against Bacillus subtilis ATCC 6633 assessed as growth inhibition after 24 hr by NCCLS broth dilution method.

≈ marks a conversion by molar mass, not a printed value. Calls of active or inactive are those of the source. The calls are words filed in the database; no cut-off is given here.

With `CN1CCN(c2cc3ncnc(Sc4nnc(-c5cccnc5)o4)c3cc2NC(=O)NCCc2ccccc2)CC1`, the MIC entry with Escherichia coli, with Staphylococcus aureus, in the experiment on Pseudomonas aeruginosa and in the experiment on Bacillus subtilis was “inactive” in each case. Further, the MIC came to 12.5 µg/mL (≈ 22 µM) with Escherichia coli (ATCC 25922, 24 h); 6.25 µg/mL (≈ 11 µM) with Staphylococcus aureus (ATCC 25923, 24 h); 50 µg/mL (≈ 88.1 µM) in the experiment with Pseudomonas aeruginosa (ATCC 27853, 24 h); 25 µg/mL (≈ 44 µM) in the experiment with Bacillus subtilis (ATCC 6633, 24 h).

One may read the MIC as the lowest concentration found to suppress growth.

For the origin of these results see ChEMBL document CHEMBL3046216, “Synthesis, biological evaluation and QSAR study of a series of substituted quinazolines as antimicrobial agents” (2013).
